Data taken from patent US9051307B2, “Bipyridyl derivatives” (Merck Patent GmbH, priority 2010, dated 2015).

biological target: T1, GST-ALK5 (Homo sapiens, UniProt P36897); experiment: In-vitro (enzyme) kinase assay, 384-well flashplate, GST-ALK5 with GST-SMAD2 and 33P-ATP (Example 16); format: biochemical; details: 31.2 nM GST-ALK5, 439 nM GST-SMAD2, 3 mM ATP, 30° C., 45 min; IC50 classes; read-out: TβR activity (Example 16)
T1 sequence (P36897 34-503): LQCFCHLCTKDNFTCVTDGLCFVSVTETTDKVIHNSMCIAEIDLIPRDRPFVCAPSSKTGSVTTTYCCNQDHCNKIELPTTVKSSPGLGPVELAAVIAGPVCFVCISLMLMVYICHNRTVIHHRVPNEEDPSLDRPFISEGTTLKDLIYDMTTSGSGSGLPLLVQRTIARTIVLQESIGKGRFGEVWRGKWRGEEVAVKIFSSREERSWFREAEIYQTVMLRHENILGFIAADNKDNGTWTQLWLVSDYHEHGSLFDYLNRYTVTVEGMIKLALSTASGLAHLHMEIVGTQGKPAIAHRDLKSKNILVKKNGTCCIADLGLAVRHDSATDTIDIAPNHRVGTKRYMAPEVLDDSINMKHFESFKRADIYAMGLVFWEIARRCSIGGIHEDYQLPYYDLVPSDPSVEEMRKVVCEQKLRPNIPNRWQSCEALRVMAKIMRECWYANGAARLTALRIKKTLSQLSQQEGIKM
Experimental: In-vitro (Enzyme) Assay for Determination of the Efficacy of Inhibitors of the Inhibition of TGF-Beta-mediated Effects
The kinase assay was carried out as 384-well flashplate assay. 31.2 nM of GST-ALK5, 439 nM of GST-SMAD2 and 3 mM of ATP (with 0.3 μCi of ^33P-ATP/well) were incubated in a total volume of 35 μl (20 mM of HEPES, 10 mM of MgCl2, 5 mM of MnCl2, 1 mM of DTT, 0.1% of BSA, pH 7.4) without or with test substance (5-10 concentrations) at 30° C. for 45 min. The reaction was stopped using 25 μl of 200 mM EDTA solution, filtered with suction at room temperature after 30 min, and the wells were washed with 3 times 100 μl of 0.9% NaCl solution. Radioactivity was measured in the TopCount. The IC50 values were calculated using RS1.

| SMILES | IC50 |
| --- | --- |
| OCCn1cc(-c2cncc(-c3ccnc(-c4cc(C(F)(F)F)ccc4F)c3)c2)cn1 [Compound 31, 2-{4-[2′-(2-Fluoro-5-trifluoromethyl-phenyl)-[3,4′]bipyridinyl-5-yl]-pyrazol-1-yl}-ethanol] | < 1 µM |
| OCCn1cc(-c2cncc(-c3ccnc(-c4cc(F)ccc4F)c3)c2)cn1 [Compound 32, 2-{4-[2′-(2,5-Difluoro-phenyl)-[3,4′]bipyridinyl-5-yl]-pyrazol-1-yl}-ethanol] | < 1 µM |
| OCCn1cc(-c2cncc(-c3ccnc(-c4ccccc4F)c3)c2)cn1 [Compound 33, 2-{4-[2′-(2-Fluoro-phenyl)-[3,4′]bipyridinyl-5-yl]-pyrazol-1-yl}-ethanol] | < 1 µM |
| OCCn1cc(-c2cncc(-c3ccnc(-c4cc(Cl)ccc4F)c3)c2)cn1 [Compound 34, 2-{4-[2′-(5-Chloro-2-fluoro-phenyl)-[3,4′]bipyridinyl-5-yl]-pyrazol-1-yl}-ethanol] | < 1 µM |
| CN1CCC(n2cc(-c3cncc(-c4ccnc(-c5cc(F)ccc5F)c4)c3)cn2)CC1 [Compound 35, 2′-(2,5-Difluoro-phenyl)-5-[1-(1-methyl-piperidin-4-yl)-1H-pyrazol-4-yl]-[3,4′]bipyridinyl] | < 1 µM |
| CN1CCC(n2cc(-c3cncc(-c4ccnc(-c5cc(C(F)(F)F)ccc5F)c4)c3)cn2)CC1 [Compound 36, 2′-(2-Fluoro-5-trifluoromethyl-phenyl)-5-[1-(1-methyl-piperidin-4-yl)-1H-pyrazol-4-yl]-[3,4′]bipyridinyl] | < 1 µM |
| CN1CCC(n2cc(-c3cncc(-c4ccnc(-c5cc(Cl)ccc5F)c4)c3)cn2)CC1 [Compound 37, 2′-(5-Chloro-2-fluoro-phenyl)-5-[1-(1-methyl-piperidin-4-yl)-1H-pyrazol-4-yl]-[3,4′]bipyridinyl] | < 1 µM |
| Fc1ccccc1-c1cc(-c2cncc(-c3cnc4ccccc4c3)c2)ccn1 [Compound 39, 2′-(2-Fluoro-phenyl)-5-quinolin-3-yl-[3,4′]bipyridinyl] | 1 to 10 µM |
| Fc1ccccc1-c1cc(-c2cncc(-n3cccn3)c2)ccn1 [Compound 41, 2′-(2-Fluoro-phenyl)-5-pyrazol-1-yl-[3,4′]bipyridinyl] | < 1 µM |
| Fc1ccccc1-c1cc(-c2cncc(-c3cnc4[nH]c(C(F)(F)F)cc4c3)c2)ccn1 [Compound 42, 2′-(2-Fluoro-phenyl)-5-(2-trifluoromethyl-1H-pyrrolo[2,3-b]pyridin-5-yl)-[3,4′]bipyridinyl] | 1 to 10 µM |
| CCOc1cc(Nc2cncc(-c3ccnc(-c4ccccc4F)c3)c2)ccn1 [Compound 43, (2-Ethoxy-pyridin-4-yl)-[2′-(2-fluoro-phenyl)-[3,4′]bipyridinyl-5-yl]-amine] | 1 to 10 µM |
| COc1ccc(Nc2cncc(-c3ccnc(-c4ccccc4F)c3)c2)cn1 [Compound 44, [2′-(2-Fluoro-phenyl)-[3,4′]bipyridinyl-5-yl]-(6-methoxy-pyridin-3-yl)-amine] | 1 to 10 µM |
| CCOCc1cnc(C)nc1Nc1cncc(-c2ccnc(-c3ccccc3F)c2)c1 [Compound 45, (5-Ethoxymethyl-2-methyl-pyrimidin-4-yl)-[2′-(2-fluoro-phenyl)-[3,4′]bipyridinyl-5-yl]-amine] | 1 to 10 µM |

The remaining lines, values ahead:

| IC50 | SMILES |
| --- | --- |
| < 1 µM | Fc1ccc(Cl)cc1-c1cc(-c2cncc(-c3cnn(C4CCNCC4)c3)c2)ccn1 [Compound 18, 2′-(5-Chloro-2-fluoro-phenyl)-5-(1-piperidin-4-yl-1H-pyrazol-4-yl)-[3,4′]bipyridinyl] |
| < 1 µM | OCCn1cc(-c2cncc(-c3ccnc(-c4ccccc4F)c3)n2)cn1 [Compound 20, 2-(4-{6-[2-(2-Fluoro-phenyl)-pyridin-4-yl]-pyrazin-2-yl}-pyrazol-1-yl)-ethanol] |
| < 1 µM | Fc1ccccc1-c1cc(-c2cncc(-c3cnn(CCCN4CCOCC4)c3)c2)ccn1 [Compound 21, 2′-(2-Fluoro-phenyl)-5-[1-(3-morpholin-4-yl-propyl)-1H-pyrazol-4-yl]-[3,4′]bipyridinyl] |
| < 1 µM | OCCCn1cc(-c2cncc(-c3ccnc(-c4ccccc4F)c3)c2)cn1 [Compound 22, 3-{4-[2′-(2-Fluoro-phenyl)-[3,4′]bipyridinyl-5-yl]-pyrazol-1-yl}-propan-1-ol] |
| < 1 µM | CN1CCN(CCCn2cc(-c3cncc(-c4ccnc(-c5ccccc5F)c4)c3)cn2)CC1 [Compound 23, 2′-(2-Fluoro-phenyl)-5-{1-[3-(4-methyl-piperazin-1-yl)-propyl]-1H-pyrazol-4-yl}-[3,4′]bipyridinyl] |
| < 1 µM | CN1CCC(n2cc(-c3cncc(-c4ccnc(-c5ccccc5F)c4)c3)cn2)CC1 [Compound 24, 2′-(2-Fluoro-phenyl)-5-[1-(1-methyl-piperidin-4-yl)-1H-pyrazol-4-yl]-[3,4′]bipyridinyl] |
| < 1 µM | CN1CCN(c2ccc(-c3cncc(-c4ccnc(-c5ccccc5F)c4)c3)cn2)CC1 [Compound 25, 2″-(2-Fluoro-phenyl)-6-(4-methyl-piperazin-1-yl)-[3,3′;5′,4″]terpyridine] |
| < 1 µM | Fc1ccccc1-c1cc(-c2cncc(-c3ccc(N4CCNCC4)nc3)c2)ccn1 [Compound 26, 2″-(2-Fluoro-phenyl)-6-piperazin-1-yl-[3,3′;5′,4″]terpyridine] |
| < 1 µM | Fc1ccccc1-c1cc(-c2cncc(-c3cnn(C4CCNCC4)c3)c2)ccn1 [Compound 27, 2′-(2-Fluoro-phenyl)-5-(1-piperidin-4-yl-1H-pyrazol-4-yl)-[3,4′]bipyridinyl] |
| < 1 µM | CN(C)CCCn1cc(-c2cncc(-c3ccnc(-c4cc(F)ccc4F)c3)c2)cn1 [Compound 28, (3-{4-[2′-(2,5-Difluoro-phenyl)-[3,4′]bipyridinyl-5-yl]-pyrazol-1-yl}-propyl)-dimethyl-amine] |
| < 1 µM | CN(C)CCCn1cc(-c2cncc(-c3ccnc(-c4ccccc4F)c3)c2)cn1 [Compound 29, (3-{4-[2′-(2-Fluoro-phenyl)-[3,4′]bipyridinyl-5-yl]-pyrazol-1-yl}-propyl)-dimethyl-amine] |
| < 1 µM | CN(C)CCCn1cc(-c2cncc(-c3ccnc(-c4cc(Cl)ccc4F)c3)c2)cn1 [Compound 30, (3-{4-[2′-(5-Chloro-2-fluoro-phenyl)-[3,4′]bipyridinyl-5-yl]-pyrazol-1-yl}-propyl)-dimethyl-amine] |
